Assay [1] concerns the target Tyrosine-protein kinase ABL1 (Homo sapiens, UniProt P00519, T315I). Put plainly: Inhibition of human ABL1 T315I mutant (229 to 499 residues) using ABLtide as substrate preincubated for 2 hrs followed by ATP addition and measured every 2 mins for […] by spectrophotometric analysis.
The target of assay [2] is Tyrosine-protein kinase ABL1 (Homo sapiens, UniProt P00519). Put plainly: Inhibition of human N-terminal his tagged native ABL1 (229 to 499 residues) expressed in Sf9 cells using ABLtide as substrate preincubated for 2 hrs followed by ATP addition and measured every 2 mins for […] by spectrophotometric analysis.
Assay [3] relates to BaF3. Description: Antitumor activity against mouse BaF3 cells harbouring BCR-ABL1 T315I mutant xenografted in Balb/c mouse model assessed as prolongation of animal survival at 100 mg/kg, po administered twice daily for 21 days. The note with it: time 21.0 day. The class given is functional, organism-based.
A further assay addresses Crk-like protein (Mus musculus, UniProt P47941, T315I). Put plainly: Inhibition of CrkL in mouse BaF3 cells harbouring BCR-ABL1 T315I mutant measured after 6 hrs by immunoblotting analysis. The class given is cell-based. (A western blot detects proteins with antibodies after separation by electrophoresis.)
The subject of assay [4] is BaF3. Description: cells. The note with it: Mus musculus, BaF3, 72 h.
Assay [5] deals with BaF3. Put plainly: cells. The note with it: Mus musculus, BaF3, 72 h. This is another data set of the same source.
Assay [6] has as its system BaF3. Put plainly: cells. The note with it: Mus musculus, BaF3, 72 h. The source holds these as a separate data set.
Assay [7] deals with BaF3. Description: cells. The settings on record: Mus musculus, BaF3, 72 h. The source holds these as a separate data set.
Assay [8] relates to BaF3. Description: cells. The settings on record: Mus musculus, BaF3, 72 h. This is another data set of the same source.
Assay [9] relates to BaF3. Description: cells. The settings on record: Mus musculus, BaF3, 72 h. The source holds these as a separate data set.
Assay [10] relates to BaF3. Put plainly: cells. The note with it: Mus musculus, BaF3, 72 h. This is another data set of the same source.
Assay [11] concerns BaF3. Description: cells. The note with it: Mus musculus, BaF3, 72 h. This is another data set of the same source.
Assay [12] deals with BaF3. Put plainly: cells. The settings on record: Mus musculus, BaF3, 72 h. The source holds these as a separate data set.
In assay [13] the test system is BaF3. Description: cells. The note with it: Mus musculus, BaF3, 72 h. The source holds these as a separate data set.
The test system of assay [14] is BaF3. Description: cells. The settings on record: Mus musculus, BaF3, 72 h. The source holds these as a separate data set.
Assay [15] has as its system BaF3. Put plainly: cells. The note with it: Mus musculus, BaF3, 72 h. This is another data set of the same source.
Assay [16] has as its system BaF3. Put plainly: cells. The settings on record: Mus musculus, BaF3, 72 h. This is another data set of the same source.
Assay [17] relates to BaF3. Description: cells. The note with it: Mus musculus, BaF3, 72 h. This is another data set of the same source.
Assay [18] relates to BaF3. Put plainly: cells. The note with it: Mus musculus, BaF3, 72 h. The source holds these as a separate data set.
The test system of assay [19] is BaF3. Put plainly: cells. The settings on record: Mus musculus, BaF3, 72 h. The source holds these as a separate data set.

Activity calls are given as the source filed them. The calls are words filed in the database; no cut-off is given here. Where only a bound is given, the exact number is not on record here.

Chain of Crk-like protein (P47941 whole entry, looked up, stated change not applied): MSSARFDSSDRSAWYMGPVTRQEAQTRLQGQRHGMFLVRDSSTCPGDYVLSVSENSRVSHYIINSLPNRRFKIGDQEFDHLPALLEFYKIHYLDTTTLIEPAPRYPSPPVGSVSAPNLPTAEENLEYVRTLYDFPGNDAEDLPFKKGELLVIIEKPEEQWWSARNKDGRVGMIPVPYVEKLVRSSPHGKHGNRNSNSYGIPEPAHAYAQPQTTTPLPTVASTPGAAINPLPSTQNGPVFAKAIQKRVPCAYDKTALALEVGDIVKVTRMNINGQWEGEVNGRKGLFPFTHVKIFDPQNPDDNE

As usually defined, the IC50 is the midpoint of a concentration-inhibition curve. In [1], `CC(C)(C)c1cc(NC(=O)Nc2cccc(Cl)c2Cl)n(-c2ccc3ncccc3c2)n1` gave an IC50 of 711 nM.
With `CC(C)(C)c1cc(NC(=O)Nc2cccc(Cl)c2Cl)n(-c2ccc3c(c2)C[C@@H](C(=O)O)NC3)n1`, the IC50 in assay [2] is 57 nM; in [1], 773 nM.
For the compound `CNC(=O)c1cc(Oc2ccc(NC(=O)Nc3cc(C(C)(C)C)nn3-c3ccc4c(c3)CCNC4)c(F)c2)ccn1`, the IC50 in assay [2] is 9 nM; in assay [1], 17 nM.
In the case of `Cc1ccc(NC(=O)c2ccc(CN3CCN(C)CC3)cc2)cc1Nc1nccc(-c2cccnc2)n1` [IMATINIB], in the assay with BaF3 [3], the result was inactive.
Regarding `Cc1nc(Nc2ncc(C(=O)Nc3c(C)cccc3Cl)s2)cc(N2CCN(CCO)CC2)n1` [DASATINIB ANHYDROUS], the IC50 was > 5000 nM at Crk-like protein; 3800 nM with BaF3 [4]; 0.4 nM with BaF3 [5]; 7.3 nM in the assay on BaF3 [6]; 2.8 nM in the assay on BaF3 [7]; 0.3 nM with BaF3 [8]. Also, the concentration for half-maximal inhibition (IC50) worked out at 2 nM in the assay on BaF3 [9]; 1 nM in the assay with BaF3 [10]; 8 nM in the assay on BaF3 [11]; 2 nM in the assay with BaF3 [12]; 8 nM with BaF3 [13]; 65 nM in the assay with BaF3 [14]. The 50% inhibitory concentration (IC50) in the assay with BaF3 [15] amounted to 2.3 nM; in the assay on BaF3 [16], 1.1 nM; with BaF3 [17], 2.7 nM; in the assay with BaF3 [18] it was 1.2 nM.
On to `CNC(=O)c1cc(Oc2ccc(NC(=O)Nc3cc(C(C)(C)C)nn3C)c(F)c2)ccn1`, for which the IC50 in assay [2] was 88 nM; in [1], 80 nM.
On to `Cc1cc(Nc2cc(N3CCN(C)CC3)nc(Sc3ccc(NC(=O)C4CC4)cc3)n2)n[nH]1` [TOZASERTIB], for which the IC50 with BaF3 [5] is 104 nM; in the assay with BaF3 [6], 110 nM; with BaF3 [7], 180 nM; in the assay on BaF3 [8], 130 nM; in the assay on BaF3 [9], 80 nM; with BaF3 [10], 190 nM. For the same compound, the IC50 in the assay with BaF3 [11] is 84 nM; in the assay with BaF3 [12], 190 nM; with BaF3 [13] it was 200 nM; with BaF3 [14], 88 nM; in the assay with BaF3 [19] it was 74 nM; with BaF3 [15] it was 84 nM. Also, the 50% inhibitory concentration (IC50) turned out to be 65 nM with BaF3 [16], 130 nM in the assay with BaF3 [17] and 160 nM in the assay on BaF3 [18].
As for `Cc1cn(-c2cc(NC(=O)c3ccc(C)c(Nc4nccc(-c5cccnc5)n4)c3)cc(C(F)(F)F)c2)cn1` [NILOTINIB], the results for the IC50 against Crk-like protein, in the assay on BaF3 [4] and in the assay on BaF3 [12] were > 5000 nM, 9500 nM and 95 nM, respectively.

The values above are taken from ChEMBL document CHEMBL5678804 (Cancer Cell, 2011).
